Assay results from BindingDB's records for doi:10.1016/s0742-8413(97)00614-2 (University of Montana, 1997).
pKi: −log10 of the molar value.

biological target: T1, 5-hydroxytryptamine receptor 1A (Oryctolagus cuniculus, UniProt Q9MZ11)
T1 sequence (Q9MZ11 whole entry): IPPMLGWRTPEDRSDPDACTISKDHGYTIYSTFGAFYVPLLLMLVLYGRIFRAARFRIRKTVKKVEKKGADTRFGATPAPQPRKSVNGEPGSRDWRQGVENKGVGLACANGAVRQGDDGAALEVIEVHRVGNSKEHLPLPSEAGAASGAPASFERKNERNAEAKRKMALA

Going from `C=C1C(=O)O[C@H]2[C@H]1CC/C(C)=C\CC[C@@]1(C)O[C@@H]21` to `O=C1NCN(c2ccccc2)C12CCN(CC1COc3ccccc3O1)CC2` (stereo unspecified) [8-(2,3-Dihydro-benzo[1,4]dioxin-2-ylmethyl)-1-phenyl-1,3,8-triaza-spiro[4.5]decan-4-one], the pKi rises from < 5.00 to 8.62.

First: NCCc1ccc(O)c(O)c1
Second: FC(F)(F)c1cccc(N2CCNCC2)c1 [TFMPP]
The pKi of the first is 1.78 log units lower: 5.11 for the first, 6.89 for the second. The second binds more tightly here.

Compared with `COc1cccc(OC)c1OCCNCC1Oc2ccccc2OC1c1ccccc1` (stereo unspecified) [NSC_185453], `CSc1ccc2c(c1)C(N1CCN(C)CC1)Cc1ccccc1S2` (stereo unspecified) [methanesulfonic acid;1-methyl-4-(3-methylsulfanyl-5,6-dihydrobenzo[b][1]benzothiepin-5-yl)piperazine] is 2.43 log units lower in pKi: 8.52 for the first, 6.09 for the second. The first binds more tightly here.
